# Source: US7265130B2, “NPY Y5 antagonist” (Shionogi & Co., Ltd., priority 1999, dated 2007)
# Assays:
# [1] = molecular target: T1, human NPY Y5 receptor (Homo sapiens, UniProt Q15761); test: Affinity for NPY Y5 receptor ([125I] peptide YY binding, CHO cell membranes); conditions: inhibition of specific [125I] peptide YY binding, membranes of CHO cells expressing NPY Y5 receptor
# T1 construct: expressed in transfected cells
# T1 sequence (Q15761 1-445): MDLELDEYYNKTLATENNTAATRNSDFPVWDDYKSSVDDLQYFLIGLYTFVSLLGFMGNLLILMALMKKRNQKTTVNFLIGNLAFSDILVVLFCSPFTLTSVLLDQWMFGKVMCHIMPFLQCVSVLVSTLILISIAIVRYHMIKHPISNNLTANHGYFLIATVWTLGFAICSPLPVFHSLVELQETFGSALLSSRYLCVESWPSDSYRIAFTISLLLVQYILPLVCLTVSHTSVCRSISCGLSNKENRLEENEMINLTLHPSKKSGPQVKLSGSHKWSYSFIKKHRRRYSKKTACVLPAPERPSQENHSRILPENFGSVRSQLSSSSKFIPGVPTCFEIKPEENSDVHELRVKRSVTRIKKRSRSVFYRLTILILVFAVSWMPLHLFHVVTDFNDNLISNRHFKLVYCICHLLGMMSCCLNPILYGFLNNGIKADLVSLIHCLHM
# How it was run: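 Membranes from CHO cells stably expressing human NPY Y5 receptor incubated with test compound and [125I] peptide YY (60 pM final) in HEPES-Hanks buffer with 0.1% BSA, pH 7.4, 25° C for 2 hours. Filter-bound radioactivity counted; non-specific binding with 200 nM peptide YY; IC50 against specific binding calculated.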
# [2] = molecular target: T1, human NPY Y5 receptor; test: cAMP production inhibitory activity in CHO cells; assay type: cell-based; conditions: against 50 nM NPY inhibition of forskolin stimulated cAMP, CHO cells expressing human NPY Y5 receptor
# How it was run: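 CHO cells expressing human NPY Y5 receptor preincubated 20 min at 37 °C with 2.5 mM IBMX, then with compound for 5 min. Stimulated with 50 nM NPY plus 10 μM forskolin for 30 min. Reaction stopped with 1N HCl; supernatant cAMP measured by EIA.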
# [3] = molecular target: T2, NPY Y1 receptor (Homo sapiens, UniProt P25929); test: Affinity for NPY Y1 receptor (membranes from SK-N-MC cells); conditions: membranes from Y1-expression cells (human neuroblastoma, SK-N-MC); read-out: Binding IC50 for NPY Y1 receptor
# T2 construct: membranes prepared from Y1-expression cells (human neuroblastoma, SK-N-MC); endogenous in cells; host or cells: SK-N-MC human neuroblastoma cells (membranes)
# T2 sequence (P25929 1-384): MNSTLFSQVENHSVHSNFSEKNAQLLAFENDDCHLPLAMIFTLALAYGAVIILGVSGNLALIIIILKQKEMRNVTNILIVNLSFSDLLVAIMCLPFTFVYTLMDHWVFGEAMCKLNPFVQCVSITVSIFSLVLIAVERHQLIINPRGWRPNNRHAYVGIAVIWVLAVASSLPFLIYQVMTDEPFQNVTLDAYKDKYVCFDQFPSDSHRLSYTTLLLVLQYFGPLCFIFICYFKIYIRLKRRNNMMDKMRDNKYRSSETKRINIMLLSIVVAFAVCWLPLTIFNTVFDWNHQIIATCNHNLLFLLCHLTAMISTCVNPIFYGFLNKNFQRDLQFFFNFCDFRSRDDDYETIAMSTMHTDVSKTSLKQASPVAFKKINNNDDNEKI
# Experimental: (§1) The membranes prepared from the above CHO cells expressing NPY Y5 receptor, the compound of the present invention and 30,000 cpm [^125I] peptide YY (60 pM of final concentration: Amersham) were incubated in the assay buffer (20 mM HEPES-Hanks buffer containing 0.1% bovine serum albumin, pH 7.4) at 25° C. for 2 hours, and then the mixture was filtered with a glassfilter GF/C treated with polyethyleneimine. After the glassfilter was washed with 50 mM Tris-HCl buffer (pH 7.4), the radioactivity on the filter was measured with a gamma counter. The non-specific binding was detected in the presence of 200 nM of peptide YY. The 50% inhibitory concentration of the test compound against the specific peptide YY binding (IC50 value) was calculated (Inui, A. et al. Endocrinology 131, 2090-2096 (1992)).
# (§2) Using the membranes prepared from Y1-expression cells (human neuroblastoma, SK-N-MC) and the membranes prepared from Y2-expression cells (human neuroblastoma, SMS-KAN), the experiment was carried out in a similar way as Experiment 1 to determine the affinity for NPY Y1 receptor and NPY Y2 receptor.
# [4] = molecular target: T3, NPY Y2 receptor (Homo sapiens, UniProt P49146); test: Affinity for NPY Y2 receptor (membranes from SMS-KAN cells); conditions: membranes from Y2-expression cells (human neuroblastoma, SMS-KAN); read-out: Binding IC50 for NPY Y2 receptor
# T3 construct: membranes prepared from Y2-expression cells (human neuroblastoma, SMS-KAN); endogenous in cells; host or cells: SMS-KAN human neuroblastoma cells (membranes)
# T3 sequence (P49146 1-381): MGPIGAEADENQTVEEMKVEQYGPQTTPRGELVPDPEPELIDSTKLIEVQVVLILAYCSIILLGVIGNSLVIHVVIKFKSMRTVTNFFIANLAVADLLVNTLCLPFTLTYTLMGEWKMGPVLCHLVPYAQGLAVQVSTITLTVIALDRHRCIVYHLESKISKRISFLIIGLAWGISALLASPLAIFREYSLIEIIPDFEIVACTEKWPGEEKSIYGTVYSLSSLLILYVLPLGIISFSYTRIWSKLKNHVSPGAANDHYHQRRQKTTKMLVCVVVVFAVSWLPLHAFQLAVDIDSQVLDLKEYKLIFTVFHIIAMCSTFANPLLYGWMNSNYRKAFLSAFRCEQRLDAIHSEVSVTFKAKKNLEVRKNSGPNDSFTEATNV
# Experimental: as §1, §2
Compound,IC50 [1],IC50 [2],IC50 [3],IC50 [4]
CC(C)S(=O)(=O)NCCCCC(=O)Nc1ccc(N2C[C@@H](C)O[C@@H](C)C2)cc1 [Ia-3],9.2 nM,150 nM,≥ 100000 nM,≥ 100000 nM
C[C@@H]1CN(c2ccc(NC(=O)CCCCNS(=O)(=O)C(C)(C)C)cc2)C[C@H](C)O1 [Ia-5],1.6 nM,43 nM,≥ 100000 nM,≥ 100000 nM
CC(C)S(=O)(=O)NC1CCC(C(=O)Nc2ccc(N3C[C@@H](C)O[C@@H](C)C3)cc2)CC1 (some centres unmarked) [Ia-6],2.4 nM,23 nM,≥ 100000 nM,≥ 100000 nM
CCC(C)c1ccc(NC(=O)C2CCC(NS(=O)(=O)C(C)(C)C)CC2)cc1 (centres unmarked) [Ia-12],0.94 nM,5.5 nM,≥ 100000 nM,≥ 100000 nM
CC(C)(C)S(=O)(=O)NC1CCC(C(=O)Nc2ccc(OC(F)(F)F)cc2)CC1 (centres unmarked) [Ia-17],0.1 nM,1.9 nM,≥ 100000 nM,≥ 100000 nM
CC(C)(C)S(=O)(=O)NC1CCC(C(=O)Nc2cccc(F)c2)CC1 (centres unmarked) [Ia-20],4.9 nM,100 nM,≥ 100000 nM,≥ 100000 nM
C[C@@H]1CN(c2ccc(NC(=O)[C@H]3CC[C@H](NS(=O)(=O)C(C)(C)C)CC3)cc2F)C[C@H](C)O1 [Ia-21],3.4 nM,35 nM,≥ 100000 nM,≥ 100000 nM
Cc1cc(NC(=O)[C@H]2CC[C@H](NS(=O)(=O)C(C)(C)C)CC2)ccc1N1C[C@@H](C)O[C@@H](C)C1 [Ia-22],3.1 nM,38 nM,≥ 100000 nM,≥ 100000 nM
C[C@@H]1CN(c2ccc(NC(=O)C3CCC(NS(=O)(=O)C(C)(C)C)CC3)c(F)c2)C[C@H](C)O1 (some centres unmarked) [Ia-26],1.9 nM,27 nM,≥ 100000 nM,≥ 100000 nM
Cc1cc(N2C[C@@H](C)O[C@@H](C)C2)ccc1NC(=O)C1CCC(NS(=O)(=O)C(C)(C)C)CC1 (some centres unmarked) [Ia-28],5.2 nM,130 nM,≥ 100000 nM,≥ 100000 nM
C[C@@H]1CN(c2ccc(NC(=O)C3CCC(NS(=O)(=O)C(C)(C)C)CC3)c(F)c2F)C[C@H](C)O1 (some centres unmarked) [Ia-29],1 nM,7.3 nM,≥ 100000 nM,≥ 100000 nM
C[C@@H]1CN(c2c(F)c(F)c(NC(=O)C3CCC(NS(=O)(=O)C(C)(C)C)CC3)c(F)c2F)C[C@H](C)O1 (some centres unmarked) [Ia-30],2.6 nM,25 nM,≥ 100000 nM,≥ 100000 nM
CC(C)(C)S(=O)(=O)NC1CCC(C(=O)Nc2ccc(Cl)cc2Cl)CC1 (centres unmarked) [Ia-31],3.8 nM,11 nM,≥ 100000 nM,≥ 100000 nM
CC(C)(C)S(=O)(=O)NC1CCC(C(=O)Nc2ccc(Cl)c(Cl)c2)CC1 (centres unmarked) [Ia-32],0.52 nM,6.7 nM,≥ 100000 nM,≥ 100000 nM
COc1ccc(NC(=O)C2CCC(NS(=O)(=O)C(C)(C)C)CC2)cc1OC (centres unmarked) [Ia-33],1.8 nM,64 nM,≥ 100000 nM,≥ 100000 nM
C[C@@H]1C[C@H](C)CN(c2ccc(NC(=O)C3CCC(NS(=O)(=O)C(C)(C)C)CC3)cc2)C1 (some centres unmarked) [Ia-37],0.73 nM,3.8 nM,≥ 100000 nM,≥ 100000 nM
COc1ccc(NC(=O)C2CCC(NS(=O)(=O)C(C)(C)C)CC2)cc1Cl (centres unmarked) [Ia-39],1.5 nM,3.5 nM,≥ 100000 nM,≥ 100000 nM
C[C@@H]1CN(c2ccc(NC(=O)C3CCC(NS(=O)(=O)C(C)(C)C)CC3)cn2)C[C@H](C)O1 (some centres unmarked) [Ia-40],2.2 nM,9.3 nM,≥ 100000 nM,≥ 100000 nM
Cc1cc(NC(=O)C2CCC(NS(=O)(=O)C(C)C)CC2)ccc1N1C[C@@H](C)O[C@@H](C)C1 (some centres unmarked) [Ia-50],1.7 nM,24 nM,≥ 100000 nM,≥ 100000 nM
CC(C)S(=O)(=O)NC1CCC(C(=O)Nc2ccc(N3C[C@@H](C)O[C@@H](C)C3)nc2)CC1 (some centres unmarked) [Ia-51],1.3 nM,3.4 nM,≥ 100000 nM,≥ 100000 nM
Cc1cc(N2C[C@@H](C)O[C@@H](C)C2)ccc1NC(=O)C1CCC(NS(=O)(=O)C(C)C)CC1 (some centres unmarked) [Ia-54],0.44 nM,9 nM,≥ 100000 nM,≥ 100000 nM
CC(C)(C)S(=O)(=O)NC1CCC(C(=O)Nc2ccc3oc(=O)ccc3c2)CC1 (centres unmarked) [Ia-62],1.1 nM,29 nM,≥ 100000 nM,≥ 100000 nM
C[C@@H]1CN(c2ccc(NC(=O)N3CCC(NS(=O)(=O)C(C)(C)C)CC3)cc2)C[C@H](C)O1 [Ia-67],6.3 nM,75 nM,≥ 100000 nM,≥ 100000 nM
C[C@@H]1CN(c2ccc(NC(=O)c3ccc(NS(=O)(=O)C(C)(C)C)cc3)cc2)C[C@H](C)O1 [Ia-124],1.1 nM,22 nM,≥ 100000 nM,≥ 100000 nM

# Continued, values first:
IC50 [1],IC50 [2],IC50 [3],IC50 [4],Compound
1.5 nM,30 nM,≥ 100000 nM,≥ 100000 nM,Cc1cc(=O)oc2cc(NC(=O)C3CCC(NS(=O)(=O)C(C)(C)C)CC3)ccc12 (centres unmarked) [Compound I-66]
3.8 nM,13 nM,≥ 100000 nM,≥ 100000 nM,CN(C)c1cccc(NC(=O)C2CCC(NS(=O)(=O)C(C)(C)C)CC2)c1 (centres unmarked) [Compound I-69]
2.3 nM,2.1 nM,≥ 100000 nM,≥ 100000 nM,C[C@@H]1CN(c2ccc(NC(=O)[C@H]3CC[C@H](NS(=O)(=O)C(C)(C)C)CC3)cc2)C[C@H](C)O1 [Compound I-72]
0.88 nM,46 nM,≥ 100000 nM,≥ 100000 nM,CC(C)(C)S(=O)(=O)NC1CCC(C(=O)NCCSc2cc(C(F)(F)F)nc3ccccc23)CC1 (centres unmarked) [Compound I-152]
1.1 nM,11 nM,≥ 100000 nM,≥ 100000 nM,CC(C)(C)S(=O)(=O)NC1CCC(C(=O)NCc2cccc3ccccc23)CC1 (centres unmarked) [Compound I-154]
1 nM,6.3 nM,≥ 100000 nM,≥ 100000 nM,CC(C)(C)S(=O)(=O)NC1CCC(C(=O)Nc2ccc3c(c2)CCC3)CC1 (centres unmarked) [Compound I-204]
2.9 nM,17 nM,≥ 100000 nM,≥ 100000 nM,CC(C)NC(=O)c1cccc(NC(=O)C2CCC(NS(=O)(=O)C(C)(C)C)CC2)c1 (centres unmarked) [Compound I-205]
0.67 nM,7.5 nM,≥ 100000 nM,≥ 100000 nM,CC(C)(C)S(=O)(=O)NC1CCC(C(=O)Nc2ccc(C(F)(F)F)cc2)CC1 (centres unmarked) [Compound I-212]
